Laboratory results taken from ChEMBL document CHEMBL4837181 (Eur J Med Chem, 2020).
Calls of active or inactive are those of the source. No cut-off for these calls is given here.

Experiments:
[1] = Change in AUC (infinity) in rat at 37 umol/kg, po measured upto 72 hrs by LC-MS/MS analysis; format: ADME, organism-based; settings: in vivo, at 37 µmol/kg
[2] = Change in Cmax in rat at 185 umol/kg, po measured upto 72 hrs by LC-MS/MS analysis; format: ADME, organism-based; settings: in vivo, at 185 µmol/kg
[3] = Change in Cmax in rat at 37 umol/kg, po measured upto 72 hrs by LC-MS/MS analysis; format: ADME, organism-based; settings: in vivo, at 37 µmol/kg
B16-F10 = assay: Antitumor activity against mouse B16-F10 cells implanted in C57BL/6 mouse assessed as reduction in tumor size at >= 287 micromol/kg, po BID administered from day 6 to day 11 and measured on day 11 by caliper method; format: functional, organism-based; settings: dose micromol/kg >=287
[4] = Dose normalized Cmax in rat at 50 mg/kg, po measured upto 72 hrs by LC-MS/MS analysis; format: ADME, organism-based; settings: in vivo
[5] = Chemical stability of compound in saline assessed as compound remaining at 5 uM measured after 24 hrs by LC-MS/MS analysis; format: physicochemical; settings: read-out: Stabilty
[6] = Chemical stability of compound in PBS buffer assessed as compound remaining at pH 7.4 at 5 uM measured after 24 hrs by LC-MS/MS analysis; format: physicochemical; settings: read-out: Stabilty
[7] = Chemical stability of compound in simulated intestinal fluid assessed as compound remaining at 5 uM measured after 3 hrs by LC-MS/MS analysis; format: ADME, physicochemical; settings: read-out: Stabilty
[8] = Stability in human plasma assessed as parent compound remaining measured after 6 hrs by LC-MS/MS analysis; format: ADME, cell-free; settings: read-out: Stabilty
[9] = Dose normalized Cmax in rat at 10 mg/kg, po measured upto 72 hrs by LC-MS/MS analysis; format: ADME, organism-based; settings: in vivo
[10] = Chemical stability of compound in simulated gastric fluid assessed as compound remaining at 5 uM measured after 1.5 hrs by LC-MS/MS analysis; format: ADME, physicochemical; settings: read-out: Stabilty
[11] = Dose normalized AUC (0 to infinity) in rat at 50 mg/kg, po measured upto 72 hrs by LC-MS/MS analysis; format: ADME, organism-based; settings: in vivo
[12] = Change in normalised Cmax in rat at 50 mg/kg, po measured upto 72 hrs by LC-MS/MS analysis; format: ADME, organism-based; settings: in vivo
[13] = Chemical stability of compound in 0.1 N aqueous HCl buffer assessed as compound remaining at pH 1 at 5 uM measured after 1.5 hrs by LC-MS/MS analysis; format: physicochemical; settings: pH 1, 1.5 h
[14] = Chemical stability of compound in 0.1 N aqueous HCl buffer assessed as compound remaining at pH 1 at 5 uM measured after 24 hrs by LC-MS/MS analysis; format: physicochemical; settings: pH 1, 24 h
[15] = Change in normalised AUC (infinity) in rat at 50 mg/kg, po measured upto 72 hrs by LC-MS/MS analysis; format: ADME, organism-based; settings: in vivo
[16] = Stability in human plasma assessed as parent compound remaining measured after 24 hrs by LC-MS/MS analysis; format: ADME, cell-free; settings: read-out: Stabilty
[17] = Stability in rat plasma assessed as parent compound remaining measured after 2 hrs by LC-MS/MS analysis; format: ADME, cell-free; settings: read-out: Stabilty
[18] = Chemical stability of compound in PBS buffer assessed as compound remaining at pH 7.4 at 5 uM measured after 6 hrs by LC-MS/MS analysis; format: physicochemical; settings: read-out: Stabilty
[19] = Stability in mouse plasma assessed as parent compound remaining measured after 2 hrs by LC-MS/MS analysis; format: ADME, cell-free; settings: read-out: Stabilty
[20] = Change in normalised Cmax in rat at 10 mg/kg, po measured upto 72 hrs by LC-MS/MS analysis; format: ADME, organism-based; settings: in vivo
[21] = Chemical stability of compound in simulated gastric fluid assessed as compound remaining at 5 uM measured after 24 hrs by LC-MS/MS analysis; format: ADME, physicochemical; settings: read-out: Stabilty
[22] = Chemical stability of compound in simulated intestinal fluid assessed as compound remaining at 5 uM measured after 24 hrs by LC-MS/MS analysis; format: ADME, physicochemical; settings: read-out: Stabilty
[23] = Dose normalized AUC (0 to infinity) in rat at 10 mg/kg, po measured upto 72 hrs by LC-MS/MS analysis; format: ADME, organism-based; settings: in vivo
[24] = Change in normalised AUCinfinity in rat at 10 mg/kg, po measured upto 72 hrs by LC-MS/MS analysis; format: ADME, organism-based; settings: in vivo
[25] = Change in AUC(infinity) in cynomolgus monkey at 825 umol/kg, po measured after 0.083 to 48 hrs by LC-MS/MS analysis; format: ADME, organism-based, Macaca fascicularis; settings: in vivo, at 825 µmol/kg, time 0.083-48 hrs
[26] = Change in AUC(infinity) in rat at 500 umol/kg, po measured upto 72 hrs by LC-MS/MS analysis; format: ADME, organism-based; settings: in vivo, at 500 µmol/kg
[27] = Change in Cmax in cynomolgus monkey at 275 umol/kg, po measured after 0.083 to 48 hrs by LC-MS/MS analysis; format: ADME, organism-based, Macaca fascicularis; settings: in vivo, at 275 µmol/kg, time 0.083-48 hrs
[28] = Change in Cmax in cynomolgus monkey at 92 umol/kg, po measured after 0.083 to 48 hrs by LC-MS/MS analysis; format: ADME, organism-based, Macaca fascicularis; settings: in vivo, at 92 µmol/kg, time 0.083-48 hrs
[29] = Change in Cmax in cynomolgus monkey at 825 umol/kg, po measured after 0.083 to 48 hrs by LC-MS/MS analysis; format: ADME, organism-based, Macaca fascicularis; settings: in vivo, at 825 µmol/kg, time 0.083-48 hrs
[30] = Change in Cmax in rat at 500 umol/kg, po measured upto 72 hrs by LC-MS/MS analysis; format: ADME, organism-based; settings: in vivo, at 500 µmol/kg
[31] = Change in AUC(infinity) in cynomolgus monkey at 275 umol/kg, po measured after 0.083 to 48 hrs by LC-MS/MS analysis; format: ADME, organism-based, Macaca fascicularis; settings: in vivo, at 275 µmol/kg, time 0.083-48 hrs
[32] = Change in AUC(infinity) in cynomolgus monkey at 92 umol/kg, po measured after 0.083 to 48 hrs by LC-MS/MS analysis; format: ADME, organism-based, Macaca fascicularis; settings: in vivo, at 92 µmol/kg, time 0.083-48 hrs
[33] = Protein binding in Beagle dog plasma; format: ADME, cell-free, Canis lupus familiaris; settings: read-out: PPB
[34] = AUC (0 to 24 hrs) in male cynomolgus monkey at 150 mg/kg, po BID measured on day 8; format: ADME, organism-based, Macaca fascicularis; parameters: time < 24 hr, route oral, dose 150 mg/kg; settings: in vivo
[35] = Drug accumulation in monkey at 75 to 375 mg/kg, po BID; format: ADME, organism-based, Macaca mulatta; settings: rhesus monkey, in vivo, dose 75-375 mg/kg
[36] = AUC (0 to 24 hrs) in male cynomolgus monkey at 675 mg/kg, po measured on day 1; format: ADME, organism-based, Macaca fascicularis; parameters: time < 24 hr, route oral, dose 675 mg/kg; settings: in vivo
[37] = AUC (0 to 24 hrs) in female cynomolgus monkey at 375 mg/kg, po BID measured on day 8; format: ADME, organism-based, Macaca fascicularis; parameters: time < 24 hr, route oral, dose 375 mg/kg; settings: in vivo
[38] = Cmax in male cynomolgus monkey at 150 mg/kg, po BID measured on day 8; format: ADME, organism-based, Macaca fascicularis; parameters: route oral, dose 150 mg/kg; settings: in vivo
[39] = AUC (0 to 24 hrs) in male cynomolgus monkey at 225 mg/kg, po measured on day 1; format: ADME, organism-based, Macaca fascicularis; parameters: time < 24 hr, route oral, dose 225 mg/kg; settings: in vivo, 24 h
[40] = Drug accumulation in rat at 100 to 900 mg/kg, po BID; format: ADME, organism-based; settings: in vivo, dose 100-900 mg/kg
[41] = AUC (0 to 24 hrs) in female cynomolgus monkey at 675 mg/kg, po measured on day 1; format: ADME, organism-based, Macaca fascicularis; parameters: time < 24 hr, route oral, dose 675 mg/kg; settings: in vivo
[42] = Half life in male cynomolgus monkey at 675 mg/kg, po measured on day 1; format: ADME, organism-based, Macaca fascicularis; settings: in vivo
[43] = Cmax in female cynomolgus monkey at 675 mg/kg, po measured on day 1; format: ADME, organism-based, Macaca fascicularis; parameters: route oral, dose 675 mg/kg; settings: in vivo
[44] = Tmax in male cynomolgus monkey at 675 mg/kg, po measured on day 1; format: ADME, organism-based, Macaca fascicularis; settings: in vivo
[45] = Tmax in male cynomolgus monkey at 150 mg/kg, po BID measured on day 8; format: ADME, organism-based, Macaca fascicularis; settings: in vivo
[46] = Tmax in female cynomolgus monkey at 675 mg/kg, po measured on day 1; format: ADME, organism-based, Macaca fascicularis; settings: in vivo
[47] = Tmax in male cynomolgus monkey at 225 mg/kg, po measured on day 1; format: ADME, organism-based, Macaca fascicularis; settings: in vivo
[48] = Protein binding in human plasma; format: ADME, cell-free; settings: read-out: PPB
[49] = Tmax in female cynomolgus monkey at 375 mg/kg, po BID measured on day 8; format: ADME, organism-based, Macaca fascicularis; settings: in vivo
[50] = Cmax in male cynomolgus monkey at 675 mg/kg, po measured on day 1; format: ADME, organism-based, Macaca fascicularis; parameters: route oral, dose 675 mg/kg; settings: in vivo
[51] = Half life in female cynomolgus monkey at 675 mg/kg, po measured on day 1; format: ADME, organism-based, Macaca fascicularis; settings: in vivo
[52] = Cmax in female cynomolgus monkey at 375 mg/kg, po BID measured on day 8; format: ADME, organism-based, Macaca fascicularis; parameters: route oral, dose 375 mg/kg; settings: in vivo
[53] = Cmax in male cynomolgus monkey at 225 mg/kg, po measured on day 1; format: ADME, organism-based, Macaca fascicularis; parameters: route oral, dose 225 mg/kg; settings: in vivo

Cn1cc(C[C@@H](N)C(=O)OCC(O)CO)c2ccccc21.O=P(O)(O)O (some centres undefined)
Activity [1]: 46% | Activity [2]: 153% | Activity [3]: 37%

CCOC(=O)[C@@H](Cc1cn(C)c2ccccc12)NC(=O)[C@@H](N)CC(C)C
Activity (B16-F10): Active

CCOC(=O)[C@@H](Cc1cn(C)c2ccccc12)NC(=O)[C@@H](N)CCSC.O=P(O)(O)O
Activity [1]: 2% | Activity [2]: 49% | Activity [3]: 32%

CCOC(=O)[C@H](N)Cc1cn(C)c2ccccc12.Cl
Cmax/dose [4]: 66000 nM | remaining at 24 h, 5 µM [5]: 100% | remaining at 24 h, 5 µM [6]: 52% | remaining at 3 h, 5 µM [7]: 64% | remaining at 6 h [8]: 93% | Cmax/dose [9]: 22000 nM | remaining at 1.5 h, 5 µM [10]: 83% | AUC/dose [11]: 2988 µM·h | Activity [12]: 143% | Stabilty [13]: 59% | Stabilty [14]: 100% | Activity [15]: 126% | remaining at 24 h [16]: 35% | remaining at 2 h [17]: 0% | remaining at 6 h, 5 µM [18]: 94% | remaining at 2 h [19]: 0% | Activity [20]: 27% | remaining at 24 h, 5 µM [21]: 85% | remaining at 24 h, 5 µM [22]: 0% | AUC/dose [23]: 454 µM·h | Activity [24]: -11%

CCOC(=O)[C@@H](Cc1cn(C)c2ccccc12)NC(=O)[C@@H](N)CC(C)C.O=P(O)(O)O
Activity [1]: 61% | Activity [2]: 69% | Activity [3]: 84%

CCOC(=O)[C@@H](Cc1cn(C)c2ccccc12)NC(=O)[C@@H](N)CCSC.Cl
Activity [25]: 369% | Activity [26]: 49% | Activity [27]: 402% | Activity [28]: 305% | Activity [29]: 411% | Activity [30]: 59% | Activity [1]: 13% | Activity [31]: 393% | Activity [32]: 136% | Activity [2]: 152% | Activity [3]: 21%

Cn1cc(C[C@@H](NC(=O)OCC(C)(C)C)C(=O)O)c2ccccc21
Cmax/dose [4]: 150 nM | AUC/dose [11]: 5.5 µM·h | Activity [12]: -99% | Activity [15]: -100% | remaining at 2 h [17]: 100% | remaining at 2 h [19]: 100%

CC(C)C[C@H](N)C(=O)N[C@H](Cc1cn(C)c2ccccc12)C(=O)O
fraction unbound [33]: > 0.5 | AUC at 24 h [34]: 0.0806 µM·h | Drug metabolism [35]: Metabolite_Notdetected | AUC [36]: 2.88 µM·h | AUC at 24 h [37]: 0.703 µM·h | Cmax [38]: 192 nM | AUC [39]: 0.858 µM·h | Drug metabolism [40]: Metabolite_Notdetected | AUC [41]: 3.61 µM·h | half-life [42]: 3.7 h | Cmax [43]: 1580 nM | Tmax [44]: 1 h | Tmax [45]: 1 h | Tmax [46]: 1.5 h | Tmax [47]: 2 h | fraction unbound [48]: > 0.5 | Tmax [49]: 2 h | Cmax [50]: 1760 nM | half-life [51]: 8.2 h | Cmax [52]: 308 nM | Cmax [53]: 353 nM
